Measurements: US20250325684A1, “POTENT ANTI-CANCER CYCLOTIDES” (University of Southern California, priority 2022, published 2025)
Numbered stars: 1 amine (or outer) side, 2 acyl side, 3 side chain; on linkers, the order of the positions; unused ones are H or OH. Bridge positions count the residues as written; N and C are the ends. Square brackets hold non-standard residues; d marks the D form. Peptide text beside a SMILES is read from it. I, II: the chains in the order shown. X1 = O=C(CCc1cn(CCOCCOCCOCCC(=O)[*:2])nn1)[*:1]; isoGln = NC(=O)[C@H](CCC(=O)[*:2])N[*:1]

Legend:
MSCLC 494 = assay: MTT cell viability, MSCLC 494 cells; format: cell-based; conditions: MSCLC 494 murine small cell lung cancer
Description: (§1) Cell viability assay in several human cancer cell lines (See Tables 1 to 10). Cell lines were cultured in RPMI 1640 (or recommended medium when indicated) medium supplemented with 10% fetal calf serum, penicillin (50 IU/mL) and streptomycin ([…]) at 37° C. in 5% CO2. Cell viability studies was carried using the MTT (3-(4,5-dimethylthiazol-2-yl)-2,5-diphenyltetrazolium bromide) assay as previously described (31). Briefly, ≈2×10^3 CRC cells were be seeded in 96-well microtiter plates in 100 μL RPMI 1640 in the presence of 10% calf serum. […] After 1 h, 210 μL/well of full complemented media was added, the cells were grown for 48 h and then treated with 20 μL of a solution of MTT (5 mg/mL) for 2 h. The medium was discarded and DMSO ([…]) was added to each well and incubated with gentle shaking for 20 min at room temperature. The absorbance at 595 nm of the solution is analyzed using a Tecan Genios Multifunctional Microplate Reader (Tecan System Inc) and the background at 670 nm subtracted. RNA-Seq analysis was performed using state-of-the-art bioinformatics tools. Briefly, raw RNA-Seq reads were mapped to human genome (hg38) using STAR aligner (v2.7.3a). Gencode Release 36 reference was used for annotation. Transcript and gene expression levels were quantified using the IsoEM (37) with default parameters. Counts per million (CPM) method is used for normalization. Differential expression was done using DESeq2 with default parameters. Genes involved in different biological pathways (human) were searched from Geneontology (http://geneontology.org/). Bioinformatics results can be validated by using Partek Flow (v10.0.21.0912), a bioinformatics pipeline developed by Zymo Research (https://www.zymoresearch.com/).
(§2) Cell viability was evaluated using the MTT assay as described above.

CT26 = assay: MTT cell viability, CT26 cells; format: cell-based; conditions: CT26 murine colon cancer, p53 WT
Description: as §1, with “Counts per million (CPM) method is used for normalization. Differential expression was done using DESeq2 with default parameters. Genes involved in different biological pathways (human) were searched from Geneontology (http://geneontology.org/). Bioinformatics results can be validated by using Partek Flow (v10.0.21.0912), a bioinformatics pipeline developed by Zymo Research (https://www.zymoresearch.com/).” left out
as §2

HL-60 = assay: MTT cell viability, HL-60 cells; format: cell-based, human; conditions: HL-60 adult acute myeloid leukemia, p53 Null
Description: as §1, with “Counts per million (CPM) method is used for normalization. Differential expression was done using DESeq2 with default parameters. Genes involved in different biological pathways (human) were searched from Geneontology (http://geneontology.org/). Bioinformatics results can be validated by using Partek Flow (v10.0.21.0912), a bioinformatics pipeline developed by Zymo Research (https://www.zymoresearch.com/).” left out
as §2

U937 = assay: MTT cell viability, U937 cells; format: cell-based, human; conditions: U937 adult acute monocytic leukemia, p53 Mutant
Description: as §1, §2

MV4-11 = assay: MTT cell viability, MV4-11 cells; format: cell-based, human; conditions: MV4-11 childhood acute monocytic leukemia, p53 WT
Description: as §1, §2

NCl-H1944 = assay: MTT cell viability, NCl-H1944 cells; format: cell-based, human; conditions: NCl-H1944 lung adenocarcinoma, p53 WT
Description: as §1, with “Counts per million (CPM) method is used for normalization. Differential expression was done using DESeq2 with default parameters. Genes involved in different biological pathways (human) were searched from Geneontology (http://geneontology.org/). Bioinformatics results can be validated by using Partek Flow (v10.0.21.0912), a bioinformatics pipeline developed by Zymo Research (https://www.zymoresearch.com/).” left out
as §2

NCl-H292 = assay: MTT cell viability, NCl-H292 cells; format: cell-based, human; conditions: NCl-H292 lung mucoepidermoid carcinoma, p53 WT
Description: as §1, with “Counts per million (CPM) method is used for normalization. Differential expression was done using DESeq2 with default parameters. Genes involved in different biological pathways (human) were searched from Geneontology (http://geneontology.org/). Bioinformatics results can be validated by using Partek Flow (v10.0.21.0912), a bioinformatics pipeline developed by Zymo Research (https://www.zymoresearch.com/).” left out
as §2

NCl-H1395 = assay: MTT cell viability, NCl-H1395 cells; format: cell-based, human; conditions: NCl-H1395 lung adenocarcinoma, p53 WT
Description: as §1, with “Counts per million (CPM) method is used for normalization. Differential expression was done using DESeq2 with default parameters. Genes involved in different biological pathways (human) were searched from Geneontology (http://geneontology.org/). Bioinformatics results can be validated by using Partek Flow (v10.0.21.0912), a bioinformatics pipeline developed by Zymo Research (https://www.zymoresearch.com/).” left out
as §2

NCl-H23 = assay: MTT cell viability, NCl-H23 cells; format: cell-based, human; conditions: NCl-H23 lung adenocarcinoma, p53 Mutant
Description: as §1, §2

NCl-H522 = assay: MTT cell viability, NCl-H522 cells; format: cell-based, human; conditions: NCl-H522 lung adenocarcinoma, p53 Mutant (Deletion)
Description: as §1, §2

NCl-H1299 = assay: MTT cell viability, NCl-H1299 cells; format: cell-based, human; conditions: NCl-H1299 lung large cell carcinoma, p53 Null
Description: as §1, §2

NCl-H69 = assay: MTT cell viability, NCl-H69 cells; format: cell-based, human; conditions: NCl-H69 lung small cell carcinoma, p53 Mutant
Description: as §1, §2

NCl-H526 = assay: MTT cell viability, NCl-H526 cells; format: cell-based, human; conditions: NCl-H526 lung small cell carcinoma, p53 Null
Description: as §1, §2

A2780 = assay: MTT cell viability, A2780 ovarian cells; format: cell-based, human; conditions: p53 WT
Description: Cell viability assay in several human cancer cell lines (See Tables 1 to 10). Cell lines were cultured in RPMI 1640 (or recommended medium when indicated) medium supplemented with 10% fetal calf serum, penicillin (50 IU/mL) and streptomycin ([…]) at 37° C. in 5% CO2. Cell viability studies was carried using the MTT (3-(4,5-dimethylthiazol-2-yl)-2,5-diphenyltetrazolium bromide) assay as previously described (31). Briefly, ≈2×10^3 CRC cells were be seeded in 96-well microtiter plates in 100 μL RPMI 1640 in the presence of 10% calf serum. After 24 h incubation the cells were washed with PBS and treated with 30 μL/well of PBS or RPMI 1640 (or recommended) media containing cyclotides MCo-52, MCoTI-I (used as negative control), nutlin-3a (used as positive control) or MI-77301 (used as positive control for p53-mutated or p53-null cells) at the indicated doses for 1 h at 37° C. in 5% CO2. After 1 h, 210 μL/well of full complemented media was added, the cells were grown for 48 h and then treated with 20 μL of a solution of MTT (5 mg/mL) for 2 h. The medium was discarded and DMSO ([…]) was added to each well and incubated with gentle shaking for 20 min at room temperature. The absorbance at 595 nm of the solution is analyzed using a Tecan Genios Multifunctional Microplate Reader (Tecan System Inc) and the background at 670 nm subtracted. RNA-Seq analysis was performed using state-of-the-art bioinformatics tools. Briefly, raw RNA-Seq reads were mapped to human genome (hg38) using STAR aligner (v2.7.3a). Gencode Release 36 reference was used for annotation. Transcript and gene expression levels were quantified using the IsoEM (37) with default parameters. Counts per million (CPM) method is used for normalization. Differential expression was done using DESeq2 with default parameters. Genes involved in different biological pathways (human) were searched from Geneontology (http://geneontology.org/). Bioinformatics results can be validated by using Partek Flow (v10.0.21.0912), a bioinformatics pipeline developed by Zymo Research (https://www.zymoresearch.com/).
Tables 1 through 10 show in vitro activity of cyclotide MCo-52-2-cTAT against different human cancer cell lines, some with null-, mutated, or wildtype p53 phenotypes. Cell viability was evaluated using the MTT assay as described above.

AsPC-1 = assay: MTT cell viability, AsPC-1 cells; format: cell-based, human; conditions: AsPC-1 pancreatic ductal adenocarcinoma, p53 Mutant
Description: as §1, §2

SW1990 = assay: MTT cell viability, SW1990 cells; format: cell-based, human; conditions: SW1990 pancreatic adenocarcinoma, p53 Mutant (Deletion)
Description: as §1, §2

HPAF-II = assay: MTT cell viability, HPAF-II cells; format: cell-based, human; conditions: HPAF-II pancreatic ductal adenocarcinoma, p53 Mutant
Description: as §1, §2

Molecule | EC50 (MSCLC 494) [µM] | EC50 (CT26) [µM] | EC50 (HL-60) [µM] | EC50 (U937) [µM] | EC50 (MV4-11) [µM] | EC50 (NCl-H1944) [µM] | EC50 (NCl-H292) [µM] | EC50 (NCl-H1395) [µM] | EC50 (NCl-H23) [µM] | EC50 (NCl-H522) [µM] | EC50 (NCl-H1299) [µM] | EC50 (NCl-H69) [µM] | EC50 (NCl-H526) [µM] | EC50 (A2780) [µM] | EC50 (AsPC-1) [µM] | EC50 (SW1990) [µM] | EC50 (HPAF-II) [µM]
COc1ccc(C2=N[C@@H](c3ccc(Cl)cc3)[C@@H](c3ccc(Cl)cc3)N2C(=O)N2CCNC(=O)C2)c(OC(C)C)c1 [Nutlin 3A] | > 100 | 9.8 ± 1.2 | 33.3 ± 4.4 | > 50 | 0.7 ± 0.1 | 22.1 | 19.2 ± 2.9 | 23.1 ± 5.6 | > 50 | > 50 | > 100 | > 50 | > 100 | 9.3 ± 0.5 | > 100 | > 100 | > 50
N=C(N)NCCC[C@@H]1NC(=O)[C@@H](CCCNC(=N)N)NC(=O)[C@H](CCCCN)NC(=O)[C@@H](N)CCCCNC(=O)CC[C@@H](C(=O)O)NC(=O)[C@@H](CCCNC(=N)N)NC(=O)[C@H](CCCNC(=N)N)NC(=O)[C@@H](CCCCN)NC(=O)[C@H](CCCCN)NC(=O)[C@@H](CCCNC(=N)N)NC(=O)CNC(=O)[C@@H](CCCNC(=N)N)NC1=O [cTAT] (H-KK[dR]R[dR]G[dR]K[dK]R[dR]E-OH; lactam 1-12; N-terminus and C-terminus assumed) | > 100 | > 100 | > 100 | > 100 | > 100 | > 100 | > 100 | > 100 | > 100 | > 100 | > 100 | > 100 | > 100 | > 100 | > 100 | > 100 | > 100
I: cyclo(ACICRHDSYCGSGSDGGVCPNLYLLCRRDKDCPG) / II: KK[dR]R[dR]G[dR]K[dK]R[dR][isoGln] (disulfide I:2-I:19, I:4-I:26, I:10-I:32; linker I:30-II:N via X1; lactam II:1-II:C) [Cyclotide 52-2-cTAT] | – | – | – | – | – | – | – | – | – | – | – | – | – | 9.7 ± 0.5 | 11.5 ± 1.5 | 11.9 ± 1.3 | 14.6 ± 1.8
